# From patent publication US6495683B2, “4-oxo-4,7-dihydro-thieno[2,3-b]pyridine-5-carboxamides as antiviral agents” (Pharmacia and Upjohn Company, priority 1999, dated 2002)
# pIC50: −log10 of the molar value. Counter-ions that a name gives are not always drawn. Like-named read-outs stand apart in the source and are kept apart here.
# Assays:
# VZV polymerase = VZV polymerase (Varicella-zoster virus, UniProt P09252); assay: biochemical; conditions: read-out: polymerase IC50 (μM) VZV
# HSV polymerase = HSV polymerase (Human herpesvirus 1, UniProt P04293); assay: biochemical; conditions: for IC50: read-out: polymerase IC50 (μM) HSV
# HSV polymerase, sequence (P04293 whole entry): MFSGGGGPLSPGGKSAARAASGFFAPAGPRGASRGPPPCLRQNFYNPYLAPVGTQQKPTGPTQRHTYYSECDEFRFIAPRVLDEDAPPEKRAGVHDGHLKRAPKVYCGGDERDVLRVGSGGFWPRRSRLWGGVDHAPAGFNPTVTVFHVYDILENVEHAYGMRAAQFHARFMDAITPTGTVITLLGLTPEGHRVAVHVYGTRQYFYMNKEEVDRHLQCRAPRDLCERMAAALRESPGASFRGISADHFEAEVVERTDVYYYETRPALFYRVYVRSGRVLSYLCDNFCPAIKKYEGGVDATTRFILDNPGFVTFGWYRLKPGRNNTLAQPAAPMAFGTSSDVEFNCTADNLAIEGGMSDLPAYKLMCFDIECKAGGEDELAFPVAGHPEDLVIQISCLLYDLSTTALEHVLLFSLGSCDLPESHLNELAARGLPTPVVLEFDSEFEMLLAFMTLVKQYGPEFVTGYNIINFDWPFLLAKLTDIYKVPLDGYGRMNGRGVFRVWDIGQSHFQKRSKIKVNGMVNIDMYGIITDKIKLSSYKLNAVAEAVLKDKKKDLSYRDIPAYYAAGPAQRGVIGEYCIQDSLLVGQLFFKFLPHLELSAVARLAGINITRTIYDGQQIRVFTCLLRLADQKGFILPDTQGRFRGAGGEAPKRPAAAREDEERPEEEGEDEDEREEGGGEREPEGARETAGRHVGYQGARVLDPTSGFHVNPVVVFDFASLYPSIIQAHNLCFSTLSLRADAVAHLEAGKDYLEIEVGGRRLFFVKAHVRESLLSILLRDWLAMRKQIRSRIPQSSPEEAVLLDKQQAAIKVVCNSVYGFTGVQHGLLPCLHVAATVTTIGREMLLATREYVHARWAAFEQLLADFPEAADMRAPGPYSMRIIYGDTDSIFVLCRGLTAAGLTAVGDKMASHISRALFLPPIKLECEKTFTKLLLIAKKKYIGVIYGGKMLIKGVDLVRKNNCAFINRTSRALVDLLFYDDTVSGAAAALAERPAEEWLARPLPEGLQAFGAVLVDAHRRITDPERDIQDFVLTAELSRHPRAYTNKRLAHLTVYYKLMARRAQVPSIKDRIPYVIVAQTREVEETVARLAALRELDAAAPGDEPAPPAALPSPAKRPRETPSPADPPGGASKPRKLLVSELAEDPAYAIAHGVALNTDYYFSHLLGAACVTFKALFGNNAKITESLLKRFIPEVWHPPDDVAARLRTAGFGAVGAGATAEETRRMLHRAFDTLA
# HCMV polymerase = target: T1, HCMV polymerase (Human cytomegalovirus, UniProt P08546); assay: biochemical; conditions: modified SPA assay: compounds diluted in 100% DMSO, 4.5 mM DTT in polymerase buffer; read-out: polymerase IC50 (μM) HCMV
# T1 construct: made in house; host or cells: recombinant baculovirus-infected SF-9 cells
# T1 sequence (P08546 whole entry): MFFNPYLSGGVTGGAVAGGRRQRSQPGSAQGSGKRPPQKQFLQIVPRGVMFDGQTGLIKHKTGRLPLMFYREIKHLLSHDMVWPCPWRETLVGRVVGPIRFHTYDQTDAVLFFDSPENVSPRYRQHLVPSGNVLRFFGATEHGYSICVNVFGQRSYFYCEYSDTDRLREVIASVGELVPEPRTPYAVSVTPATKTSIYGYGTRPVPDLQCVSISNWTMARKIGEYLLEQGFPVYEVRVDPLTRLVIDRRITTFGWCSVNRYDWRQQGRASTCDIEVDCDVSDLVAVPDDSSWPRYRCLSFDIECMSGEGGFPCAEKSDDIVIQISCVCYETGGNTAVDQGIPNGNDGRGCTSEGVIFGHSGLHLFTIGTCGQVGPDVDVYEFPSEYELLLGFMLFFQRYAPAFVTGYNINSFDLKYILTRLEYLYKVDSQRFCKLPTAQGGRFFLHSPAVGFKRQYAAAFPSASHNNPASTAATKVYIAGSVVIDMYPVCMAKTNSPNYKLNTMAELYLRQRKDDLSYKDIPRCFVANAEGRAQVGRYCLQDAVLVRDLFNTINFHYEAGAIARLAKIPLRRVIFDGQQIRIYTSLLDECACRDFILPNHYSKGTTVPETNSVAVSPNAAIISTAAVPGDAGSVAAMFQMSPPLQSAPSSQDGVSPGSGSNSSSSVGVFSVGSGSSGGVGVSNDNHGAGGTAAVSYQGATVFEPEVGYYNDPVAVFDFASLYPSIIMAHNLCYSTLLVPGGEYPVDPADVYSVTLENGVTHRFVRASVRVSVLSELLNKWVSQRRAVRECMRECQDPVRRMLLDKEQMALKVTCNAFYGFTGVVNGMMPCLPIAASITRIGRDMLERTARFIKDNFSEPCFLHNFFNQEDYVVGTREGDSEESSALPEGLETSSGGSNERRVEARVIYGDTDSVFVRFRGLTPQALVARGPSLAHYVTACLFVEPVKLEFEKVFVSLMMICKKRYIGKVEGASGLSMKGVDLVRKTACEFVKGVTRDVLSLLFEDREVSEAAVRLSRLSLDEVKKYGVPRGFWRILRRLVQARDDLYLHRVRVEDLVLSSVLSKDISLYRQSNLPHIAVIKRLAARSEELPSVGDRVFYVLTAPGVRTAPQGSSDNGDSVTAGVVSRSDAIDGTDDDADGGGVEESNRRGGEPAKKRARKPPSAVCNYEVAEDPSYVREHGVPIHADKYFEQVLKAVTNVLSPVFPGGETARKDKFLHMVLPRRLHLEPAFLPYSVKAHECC
# Description: The HCMV polymerase assay is performed using a scintillation proximity assay (SPA) as described in several references, such as N. D. Cook, et al., Pharmaceutical Manufacturing International, pages 49-53 (1992); K. Takeuchi, Laboratory Practice, September issue (1992); U.S. Pat. No. 4,568,649 (1986); which are incorporated by reference herein. Reactions are performed in 96-well plates. The assay is conducted in 100 μl volume with 5.4 mM HEPE (pH 7.5), 11.7 mM KCl, 4.5 mM MgCl2, 0.36 mg/ml BSA, and 90 nM ^3H-dTTP. Assays are run with and without CHAPS, (3-[(3-cholamidopropyl)-dimethylammonio]-1-propane-sulfonate) at a final concentration of 2 mM. HCMV polymerase is diluted in enzyme dilution buffer containing 50% glycerol, 250 mM NaCl, 10 mM HEPES (pH 7.5), 100 μg/ml BSA, and 0.01% sodium azide. The HCMV polymerase, which is expressed in recombinant baculovirus-infected SF-9 cells and purified according to literature procedures, is added at 10% (or 10 μl) of the final reaction volume, i.e., 100 μl. Compounds are diluted in 50% DMSO and 10 μl are added to each well. Control wells contain an equivalent concentration of DMSO. Unless noted otherwise, reactions are initiated via the addition of 6 nM biotinylated poly(dA)-oligo(dT) template/primer to reaction mixtures containing the enzyme, substrate, and compounds of interest. Plates are incubated in a 25 C or 37 C H2O bath and terminated via the addition of 40 μl/reaction of 0.5 M EDTA (pH 8) per well. Reactions are terminated within the time-frame during which substrate incorporation is linear and varied depending upon the enzyme and conditions used, i.e., 30 min. for HCMV polymerase. Ten μl of streptavidin-SPA beads (20 mg/ml in PBS/10% glycerol) are added following termination of the reaction. Plates are incubated 10 min. at 37 ° C., then equilibrated to room temperature, and counted on a Packard Topcount. Linear regressions are performed and IC50's are calculated using computer software.
# A modified version of the above HCMV polymerase assay is performed as described above, but with the following changes: Compounds are diluted in 100% DMSO until final dilution into assay buffer. In the previous assay, compounds are diluted in 50% DMSO. 4.5 mM dithiothreotol (DTT) is added to the polymerase buffer.
# VZV polymerase, sequence (P09252 whole entry): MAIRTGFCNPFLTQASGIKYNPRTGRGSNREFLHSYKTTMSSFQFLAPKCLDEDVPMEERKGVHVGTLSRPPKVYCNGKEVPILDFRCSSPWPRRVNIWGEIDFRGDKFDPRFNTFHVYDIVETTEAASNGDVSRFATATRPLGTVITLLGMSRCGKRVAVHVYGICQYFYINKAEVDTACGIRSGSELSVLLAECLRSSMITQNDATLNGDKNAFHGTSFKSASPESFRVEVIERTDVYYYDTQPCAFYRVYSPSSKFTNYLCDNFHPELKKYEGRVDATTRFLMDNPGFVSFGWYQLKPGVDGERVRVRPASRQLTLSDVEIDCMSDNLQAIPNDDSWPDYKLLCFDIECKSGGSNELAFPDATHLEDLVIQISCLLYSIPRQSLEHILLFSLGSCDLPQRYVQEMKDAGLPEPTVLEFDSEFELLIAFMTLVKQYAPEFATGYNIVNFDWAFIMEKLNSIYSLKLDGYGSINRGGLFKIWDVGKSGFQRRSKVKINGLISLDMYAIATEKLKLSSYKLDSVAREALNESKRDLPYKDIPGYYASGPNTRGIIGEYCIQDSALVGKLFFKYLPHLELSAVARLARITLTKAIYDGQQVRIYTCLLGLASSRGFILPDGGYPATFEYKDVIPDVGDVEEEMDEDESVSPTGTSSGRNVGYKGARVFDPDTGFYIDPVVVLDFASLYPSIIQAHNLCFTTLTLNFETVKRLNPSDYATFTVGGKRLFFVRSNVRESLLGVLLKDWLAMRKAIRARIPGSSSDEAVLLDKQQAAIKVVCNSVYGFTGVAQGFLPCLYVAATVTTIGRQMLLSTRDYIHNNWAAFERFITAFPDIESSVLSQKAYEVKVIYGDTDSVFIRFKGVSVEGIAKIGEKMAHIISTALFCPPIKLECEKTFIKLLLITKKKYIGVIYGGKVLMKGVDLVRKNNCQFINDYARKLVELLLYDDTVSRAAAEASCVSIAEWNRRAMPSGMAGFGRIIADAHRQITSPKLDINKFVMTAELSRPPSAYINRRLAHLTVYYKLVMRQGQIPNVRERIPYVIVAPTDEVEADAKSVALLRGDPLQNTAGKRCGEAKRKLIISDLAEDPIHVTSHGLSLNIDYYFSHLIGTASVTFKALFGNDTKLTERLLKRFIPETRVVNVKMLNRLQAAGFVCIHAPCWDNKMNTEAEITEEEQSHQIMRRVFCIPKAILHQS
melting point,IC50 (VZV polymerase),IC50 (HSV polymerase),IC50 (HCMV polymerase),SMILES,pIC50 (HSV polymerase)
185 to 186 °C,0.55 µM,0.91 µM,2.2 µM,"O=C(NCc1ccc(Cl)cc1)c1cnc2sc(CCCO)cc2c1O [Example 8, N-(4-Chlorobenzyl)4-hydroxy-2-(3-hydroxpropyl)thieno[2,3-b]pyridine-5-carboxamide]",–
233 to 236 °C,0.6 µM,0.88 µM,2.5 µM,"O=C(NCc1ccc(Cl)cc1)c1cnc2sc(C#CCO)cc2c1O [Example 5, N-(4-Chlorobenzyl)-4-hydroxy-2-(3-hydroxy-1-propynyl)thieno[2,3-b]pyridine-5-carboxamide]",–
–,0.39 µM,0.95 µM,1.7 µM,"CCN(CC)CCn1cc(C(=O)NCc2ccc(Cl)cc2)c(=O)c2cc(C#CCO)sc21 [Example 18, N-(4-Chlorobenzyl)-7-[2-(diethylamino)ethyl]-2-(3hydroxy-1-propynyl)4-oxo4,7-dihydrothieno[2,3-b]pyridine-5-carboxamide hydrochloride]",–

SMILES,melting point,IC50 (VZV polymerase),IC50 (HSV polymerase),IC50 (HCMV polymerase),pIC50 (HSV polymerase)
"Cn1cc(C(=O)NCc2ccc(Cl)cc2)c(=O)c2cc(CN3CCOCC3)sc21 [Example 36, N-(4-Chlorobenzyl)-7-methyl-2-(4-morpholinylmethyl)-4-oxo-4,7-dihydrothieno[2,3-b]pyridine-5-carboxamide]",–,0.77 µM,–,1.8 µM,5.92
